Measured values from patent US10933002B2, “Preservation booster” (DSM IP ASSETS B.V., priority 2017, dated 2021).

Test system: Escherichia coli
Assay: antimicrobial efficacy in analogy to the regulatory challenge test method (NF EN ISO11930)
Type: cell-based
Details: 0.2 wt.-% test solution in physiological serum; 24 h after contamination; 22° C.; initial contamination 580000 cfu/ml
Protocol: The term “antimicrobial activity” (or “antimicrobial effect”) as used herein means a capability of killing and/or inhibiting the growth of pathogenic or unwanted bacteria, such as in particular Escherichia coli (Escherichia coli ATCC 8739). The applied measuring method is NF EN IS011930. The antimicrobial efficacy is assessed in analogy to the regulatory challenge test method (NF EN ISO11930). Thus, solutions of the respective active(s) in ethanol are prepared and further dissolved in physiological serum with 0.85 wt.-% NaCl in the concentrations as outlined in table 1 under sterile conditions. Samples containing phytantriol were solubilized in physiological serum supplemented with 10 wt.-% ethanol, samples containing erythrulose only were solubilized in physiological serum supplemented with 1 wt.-% ethanol. The solutions of the active(s) were deposed in 96-deep well plates (1.6 ml/well). The wells are contaminated with the Escherichia coli at 1.5*10^5 to 1*10^6 cfu/ml to obtain the initial contamination as outlined in table 1. After the contamination, each well was thoroughly mixed to ensure a homogeneous distribution of E. coli. Then each plate was incubated at 22° C. for 24 h. The counting of the (remaining) population is carried out 24 h after contamination.

Compound | Escherichia coli colony count [cfu/ml] | Log reduction
O=C(CO)[C@H](O)CO (racemic) [erythrulose] | 33700 | −1.236
CC(C)CCCC(C)CCCC(C)CCCC(C)(O)C(O)CO (stereo not shown) [phytantriol, 3,7,11,15-tetramethyl-1,2,3-hexadecanetriol] | 1000 | −2.763
